Test results taken from patent publication US20120135995A1, “FUNGICIDAL DIPHENYL-SUBSTITUTED PYRIDAZINES” (E.I. Dupont de Nemours and Company, priority 2009, published 2012).

How the values were obtained:
Type in all cases: in vivo
[1] = system: Botrytis cinerea; experiment: Test A: tomato seedlings sprayed, next day inoculated with Botrytis cinerea (tomato Botrytis), visual disease rating; settings: sprayed day before inoculation; for pest or weed control at 40 ppm / pest or weed control at 200 ppm: Botrytis cinerea; for pest or weed control at 40 ppm: 40 ppm test suspension (*); for Test A rating (disease control) / pest or weed control at 200 ppm: 200 ppm test suspension
Excerpt: (§1) General protocol for preparing test suspensions for Tests A-F: the test compounds were first dissolved in acetone in an amount equal to 3% of the final volume and then suspended at the desired concentration (in ppm) in acetone and purified water (50/50 mix) containing 250 ppm of the surfactant Trem® 014 (polyhydric alcohol esters). The resulting test suspensions were then used in Tests A-F. Spraying a 200 ppm test suspension to the point of run-off on the test plants was the equivalent of a rate of 500 g/ha. An asterisk “*” next to the rating value indicates a 40 ppm test suspension.
The test suspension was sprayed to the point of run-off on tomato seedlings. The following day the seedlings were inoculated with a spore suspension of Botrytis cinerea (the causal agent of tomato Botrytis) and incubated in saturated atmosphere at 20° C. for 48 h, and then moved to a growth chamber at 24° C. for 3 days, after which time visual disease ratings were made.
(§2) Results for Tests A-F are given in Table A. In the Table, a rating of 100 indicates 100% disease control and a rating of 0 indicates no disease control (relative to the controls). A dash (-) indicates no test results. All results are for 200 ppm except where followed by “*”, which indicates 40 ppm.

[2] = system: Alternaria solani; experiment: Test B: tomato seedlings sprayed, next day inoculated with Alternaria solani (tomato early blight), visual disease rating; settings: sprayed day before inoculation; for pest or weed control at 40 ppm / pest or weed control at 200 ppm: Alternaria solani; for pest or weed control at 40 ppm: 40 ppm test suspension (*); for Test B rating (disease control) / pest or weed control at 200 ppm: 200 ppm test suspension
Excerpt: as §1
The test suspension was sprayed to the point of run-off on tomato seedlings. The following day the seedlings were inoculated with a spore suspension of Alternaria solani (the causal agent of tomato early blight) and incubated in a saturated atmosphere at 27° C. for 48 h, and then moved to a growth chamber at 20° C. for 5 days, after which time visual disease ratings were made.
as §2

[3] = system: Septoria nodorum; experiment: Test C: wheat seedlings sprayed, next day inoculated with Septoria nodorum (wheat glume blotch), visual disease rating; settings: sprayed day before inoculation; for pest or weed control at 40 ppm / pest or weed control at 200 ppm: Parastagonospora nodorum; for pest or weed control at 40 ppm: 40 ppm test suspension (*); for Test C rating (disease control) / pest or weed control at 200 ppm: 200 ppm test suspension
Excerpt: as §1
The test suspension was sprayed to the point of run-off on wheat seedlings. The following day the seedlings were inoculated with a spore suspension of Septoria nodorum (the causal agent of wheat glume blotch) and incubated in a saturated atmosphere at 24° C. for 48 h, and then moved to a growth chamber at 20° C. for 6 days, after which time visual disease ratings were made.
as §2

[4] = system: Septoria tritici; experiment: Test D: wheat seedlings sprayed, next day inoculated with Septoria tritici (wheat leaf blotch), visual disease rating; settings: sprayed day before inoculation; for pest or weed control at 40 ppm / pest or weed control at 200 ppm: Zymoseptoria tritici; for pest or weed control at 40 ppm: 40 ppm test suspension (*); for Test D rating (disease control) / pest or weed control at 200 ppm: 200 ppm test suspension
Excerpt: as §1
The test suspension was sprayed to the point of run-off on wheat seedlings. The following day the seedlings were inoculated with a spore suspension of Septoria tritici (the causal agent of wheat leaf blotch) and incubated in saturated atmosphere at 24° C. for 48 h, and then moved to a growth chamber at 20° C. for 19 days, after which time visual disease ratings were made.
as §2

[5] = system: Puccinia recondita f. sp. tritici; experiment: Test E2: wheat seedlings sprayed, next day inoculated with Puccinia recondita f. sp. tritici (wheat leaf rust), visual disease rating; settings: sprayed day before inoculation; for pest or weed control at 40 ppm / pest or weed control at 200 ppm: Puccinia recondita; for pest or weed control at 40 ppm: 40 ppm test suspension (*); for Test E2 rating (disease control) / pest or weed control at 200 ppm: 200 ppm test suspension
Excerpt: as §1
The test suspension was sprayed to the point of run-off on wheat seedlings. The following day the seedlings were inoculated with a spore suspension of Puccinia recondita f. sp. tritici (the causal agent of wheat leaf rust) and incubated in a saturated atmosphere at 20° C. for 24 h, and then moved to a growth chamber at 20° C. for 7 days, after which time visual disease ratings were made.
as §2

[6] = system: Erysiphe graminis; experiment: Test F: wheat seedlings sprayed, next day inoculated with Erysiphe graminis (wheat powdery mildew), visual disease rating; settings: sprayed day before inoculation; for pest or weed control at 40 ppm / pest or weed control at 200 ppm: Blumeria graminis; for pest or weed control at 40 ppm: 40 ppm test suspension (*); for Test F rating (disease control) / pest or weed control at 200 ppm: 200 ppm test suspension
Excerpt: as §1
The test suspension was sprayed to the point of run-off on wheat seedlings. The following day the seedlings were inoculated with a spore dust of Erysiphe graminis, (the causal agent of wheat powdery mildew) and incubated in a growth chamber at 20° C. for 8 days, after which time visual disease ratings were made.
as §2

[7] = system: Puccinia recondita f. sp. tritici; experiment: Test E1: wheat seedlings inoculated with Puccinia recondita f. sp. tritici (wheat leaf rust), sprayed afterwards, visual disease rating; settings: 200 ppm test suspension, sprayed after inoculation
Excerpt: as §1
Wheat seedlings were inoculated with a spore suspension of Puccinia recondita f. sp. tritici (the causal agent of wheat leaf rust) and incubated in a saturated atmosphere at 20° C. for 24 h, and then moved to a growth chamber at 20° C. for 2 days. At the end of this time the test suspension was sprayed to the point of run-off on the wheat seedlings, and then the seedlings were moved to a growth chamber at 20° C. for 6 days, after which time visual disease ratings were made.
as §2

| Compound | pest or weed control at 40 ppm [1] [%] | pest or weed control at 40 ppm [2] [%] | pest or weed control at 40 ppm [3] [%] | pest or weed control at 40 ppm [4] [%] | pest or weed control at 40 ppm [5] [%] | pest or weed control at 40 ppm [6] [%] | Test A rating (disease control) [1] [%] | Test B rating (disease control) [2] [%] | Test C rating (disease control) [3] [%] | Test E2 rating (disease control) [5] [%] | Test F rating (disease control) [6] [%] | Test E1 rating (disease control) [7] [%] | further results |
| --- | --- | --- | --- | --- | --- | --- | --- | --- | --- | --- | --- | --- | --- |
| COc1cc(OC)cc(-c2c(C)nnc(Cl)c2-c2c(F)cc(OC)cc2F)c1 [Compound 10, 3-chloro-4-(2,6-difluoro-4-methoxyphenyl)-5-(3,5-dimethoxyphenyl)-6-methylpyridazine] | 100 | 100 | 98 | 99 | 100 | 99 |  |  |  |  |  |  |  |
| COc1cc(OC)cc(-c2c(C)nnc(C)c2-c2c(F)cc(OC)cc2F)c1 [Compound 11, 4-(2,6-difluoro-4-methoxyphenyl)-5-(3,5-dimethoxyphenyl)-3,6-dimethylpyridazine] | 100 | 100 | 99 | 100 | 100 | 100 |  |  |  |  |  |  |  |
| COc1cc(OC)cc(-c2c(Cl)nnc(C)c2-c2c(F)cc(F)cc2F)c1 [Compound 12, 3-chloro-4-(3,5-dimethoxyphenyl)-6-methyl-5-(2,4,6-trifluorophenyl)pyridazine] | 99 | 100 | 99 | 99 | 100 | 100 |  |  |  |  |  |  |  |
| COc1cc(OC)cc(-c2c(Cl)nnc(C)c2-c2ccc(F)cc2)c1 [Compound 13] |  |  |  |  |  |  | 8 | 0 | 0 | 19 | 39 |  | Test D rating (disease control) [4]: 45% |
| COc1cc(OC)cc(-c2c(C)nnc(Cl)c2-c2c(F)ccc(F)c2F)c1 [Compound 15, 3-chloro-5-(3,5-dimethoxyphenyl)-6-methyl-4-(2,3,6-trifluorophenyl)pyridazine] |  |  |  |  |  |  |  |  |  |  |  |  | pest or weed control at 200 ppm [1]: 100%; pest or weed control at 200 ppm [2]: 100%; pest or weed control at 200 ppm [3]: 84%; pest or weed control at 200 ppm [4]: 99%; pest or weed control at 200 ppm [5]: 100%; pest or weed control at 200 ppm [6]: 99% |
| COc1cc(OC)cc(-c2c(C)nnc(C)c2-c2c(F)ccc(F)c2F)c1 [Compound 17, 4-(3,5-dimethoxyphenyl)-3,6-dimethyl-5-(2,3,6-trifluorophenyl)pyridazine] |  |  |  |  |  |  |  |  |  |  |  |  | pest or weed control at 200 ppm [1]: 100%; pest or weed control at 200 ppm [2]: 100%; pest or weed control at 200 ppm [3]: 99%; pest or weed control at 200 ppm [4]: 99%; pest or weed control at 200 ppm [5]: 100%; pest or weed control at 200 ppm [6]: 100% |
| COc1cc(OC)cc(-c2c(C(C)(C)O)nnc(C)c2-c2c(F)cc(F)cc2F)c1 [Compound 21, 4-(3,5-dimethoxyphenyl)-α,α,6-trimethyl-5-(2,4,6-trifluorophenyl)-3-pyridazinemethanol] | 100 | 99 | 40 | 98 | 100 | 100 |  |  |  |  |  |  |  |
| COc1cc(OC)c(Cl)c(-c2c(C)nnc(Cl)c2-c2c(F)cc(F)cc2F)c1 [Compound 23, 3-chloro-5-(2-chloro-3,5-dimethoxyphenyl)-6-methyl-4-(2,4,6-trifluoro-phenyl)pyridazine] | 100 | 100 | 100 | 100 | 100 | 100 |  |  |  |  |  |  |  |
| COc1cc(OC)c(Cl)c(-c2c(C)nnc(Cl)c2-c2c(F)cccc2F)c1 [Compound 28] |  |  |  |  |  |  | 100 | 100 | 78 | 100 | 100 |  | Test D rating (disease control) [4]: 100% |
| COc1cc(OC)cc(-c2c(C)nnc(C)c2-c2c(F)cccc2F)c1 [Compound 31] |  |  |  |  |  |  | 100 | 99 | 100 | 99 | 98 |  | Test D rating (disease control) [4]: 100% |
| COc1cc(OC)c(Cl)c(-c2c(C)nnc(C)c2-c2c(F)cccc2F)c1Cl [Compound 34] |  |  |  |  |  |  | 100 | 0 | 0 | 100 | 97 |  | Test D rating (disease control) [4]: 100% |
| COc1cc(OC)cc(-c2c(C)nnc(F)c2-c2c(F)cccc2Cl)c1 [Compound 47] |  |  |  |  |  |  |  | 100 | 99 | 99 | 99 | 100 |  |
| COc1cc(OC)cc(-c2c(C)nnc(Cl)c2-c2ccc(F)cc2Cl)c1 [Compound 48] |  |  |  |  |  |  |  | 100 | 0 | 99 | 97 | 0 |  |
| COc1cc(OC)c(Cl)c(-c2c(C)nnc(C)c2-c2ccc(F)cc2F)c1 [Compound 49] |  |  |  |  |  |  |  | 99 | 99 | 100 | 100 | 100 |  |
| COc1cc(-c2c(C)nnc(C)c2-c2ccc(F)cc2F)cc(OC)c1Cl [Compound 50] |  |  |  |  |  |  |  | 100 | 100 | 100 | 100 | 100 |  |
| COc1cc(OC)c(Cl)c(-c2c(C)nnc(F)c2-c2ccc(F)cc2F)c1 [Compound 51] |  |  |  |  |  |  | 99 | 100 | 0 | 100 | 99 | 0 |  |
